Experimental data from ChEMBL document CHEMBL4507286 (2021).

Assays:
[1] = tested on: Tyrosine-protein kinase ABL1 (Homo sapiens), P00519 [F317L]
[2] = target: RAC-beta serine/threonine-protein kinase (Homo sapiens) (UniProt P31751)
[3] = target: Mitogen-activated protein kinase 4 (Homo sapiens) (UniProt P31152)
[4] = target: Activated CDC42 kinase 1 (Homo sapiens) (UniProt Q07912)
[5] = target: Serine/threonine-protein kinase DCLK2 (Homo sapiens) (UniProt Q8N568)
[6] = target: Serine/threonine-protein kinase 32C (Homo sapiens) (UniProt Q86UX6)
[7] = target: Protein-tyrosine kinase 6 (Homo sapiens) (UniProt Q13882)
[8] = target: Serine/threonine-protein kinase RIO1 (Homo sapiens) (UniProt Q9BRS2)
[9] = target: Dual specificity protein kinase CLK1 (Homo sapiens) (UniProt P49759)
[10] = target: Serine/threonine-protein kinase Nek9 (Homo sapiens) (UniProt Q8TD19)
[11] = target: Ephrin type-A receptor 7 (Homo sapiens) (UniProt Q15375)
Chain of Ephrin type-A receptor 7 (Homo sapiens) (Q15375 28-998 limits assumed): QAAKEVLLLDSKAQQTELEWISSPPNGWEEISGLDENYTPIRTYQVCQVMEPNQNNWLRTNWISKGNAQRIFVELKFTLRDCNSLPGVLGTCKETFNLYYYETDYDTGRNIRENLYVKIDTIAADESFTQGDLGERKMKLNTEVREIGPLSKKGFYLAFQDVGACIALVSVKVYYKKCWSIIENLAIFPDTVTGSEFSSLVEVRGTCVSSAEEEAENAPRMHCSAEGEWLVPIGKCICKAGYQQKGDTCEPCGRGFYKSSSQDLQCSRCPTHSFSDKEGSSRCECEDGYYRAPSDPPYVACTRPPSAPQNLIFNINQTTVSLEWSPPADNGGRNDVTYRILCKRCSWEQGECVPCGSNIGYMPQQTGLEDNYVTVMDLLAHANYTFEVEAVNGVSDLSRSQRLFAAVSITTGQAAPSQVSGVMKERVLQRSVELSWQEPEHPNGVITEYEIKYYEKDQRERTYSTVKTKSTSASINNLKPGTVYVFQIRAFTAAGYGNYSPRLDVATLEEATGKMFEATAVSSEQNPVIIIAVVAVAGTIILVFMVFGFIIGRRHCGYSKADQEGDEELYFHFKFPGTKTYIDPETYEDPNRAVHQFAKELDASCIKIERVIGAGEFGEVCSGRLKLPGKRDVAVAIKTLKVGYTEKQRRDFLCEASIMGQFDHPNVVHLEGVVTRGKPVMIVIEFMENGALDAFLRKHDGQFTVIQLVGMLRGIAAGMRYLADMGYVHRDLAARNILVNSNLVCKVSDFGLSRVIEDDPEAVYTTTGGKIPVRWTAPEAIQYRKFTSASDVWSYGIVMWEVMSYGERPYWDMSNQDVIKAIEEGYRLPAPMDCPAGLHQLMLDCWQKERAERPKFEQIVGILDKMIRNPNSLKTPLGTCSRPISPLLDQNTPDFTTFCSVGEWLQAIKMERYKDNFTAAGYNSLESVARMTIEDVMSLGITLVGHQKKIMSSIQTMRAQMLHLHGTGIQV

[12] = target: Mitogen-activated protein kinase kinase kinase 15 (Homo sapiens) (UniProt Q6ZN16)
[13] = target: Cyclin-dependent kinase 11A (Homo sapiens) (UniProt Q9UQ88)
[14] = target: 5-hydroxytryptamine receptor 2A (Homo sapiens) (UniProt P28223); settings: Compound concentration 10.0 uM
[15] = target: Tyrosine-protein kinase ABL2 (Homo sapiens) (UniProt P42684)
[16] = target: Alpha-2C adrenergic receptor (Homo sapiens) (UniProt P18825); settings: Compound concentration 10.0 uM
[17] = target: Serine/threonine-protein kinase MRCK beta (Homo sapiens) (UniProt Q9Y5S2)
[18] = target: Homeodomain-interacting protein kinase 4 (Homo sapiens) (UniProt Q8NE63)
[19] = target: Cyclin-dependent kinase 19 (Homo sapiens) (UniProt Q9BWU1)
[20] = tested on: Epidermal growth factor receptor (Homo sapiens), P00533 [G719S]
[21] = target: Serine/threonine-protein kinase SBK1 (Homo sapiens) (UniProt Q52WX2)
[22] = target: Death-associated protein kinase 3 (Homo sapiens) (UniProt O43293)
[23] = target: G protein-coupled receptor kinase 3 (Homo sapiens) (UniProt P35626)
[24] = target: Histamine H2 receptor (Homo sapiens) (UniProt P25021); settings: Compound concentration 10.0 uM
[25] = target: Aurora kinase C (Homo sapiens) (UniProt Q9UQB9)
[26] = target: Serine/threonine-protein kinase SIK1 (Homo sapiens) (UniProt P57059)
[27] = target: Serine/threonine-protein kinase ULK1 (Homo sapiens) (UniProt O75385)
[28] = target: Serine/threonine-protein kinase DCLK3 (Homo sapiens) (UniProt Q9C098)
[29] = target: Cyclin-dependent kinase 4 (Homo sapiens) (UniProt P11802)
[30] = target: Leukocyte tyrosine kinase receptor (Homo sapiens) (UniProt P29376)
Chain of Leukocyte tyrosine kinase receptor (Homo sapiens) (P29376 whole entry): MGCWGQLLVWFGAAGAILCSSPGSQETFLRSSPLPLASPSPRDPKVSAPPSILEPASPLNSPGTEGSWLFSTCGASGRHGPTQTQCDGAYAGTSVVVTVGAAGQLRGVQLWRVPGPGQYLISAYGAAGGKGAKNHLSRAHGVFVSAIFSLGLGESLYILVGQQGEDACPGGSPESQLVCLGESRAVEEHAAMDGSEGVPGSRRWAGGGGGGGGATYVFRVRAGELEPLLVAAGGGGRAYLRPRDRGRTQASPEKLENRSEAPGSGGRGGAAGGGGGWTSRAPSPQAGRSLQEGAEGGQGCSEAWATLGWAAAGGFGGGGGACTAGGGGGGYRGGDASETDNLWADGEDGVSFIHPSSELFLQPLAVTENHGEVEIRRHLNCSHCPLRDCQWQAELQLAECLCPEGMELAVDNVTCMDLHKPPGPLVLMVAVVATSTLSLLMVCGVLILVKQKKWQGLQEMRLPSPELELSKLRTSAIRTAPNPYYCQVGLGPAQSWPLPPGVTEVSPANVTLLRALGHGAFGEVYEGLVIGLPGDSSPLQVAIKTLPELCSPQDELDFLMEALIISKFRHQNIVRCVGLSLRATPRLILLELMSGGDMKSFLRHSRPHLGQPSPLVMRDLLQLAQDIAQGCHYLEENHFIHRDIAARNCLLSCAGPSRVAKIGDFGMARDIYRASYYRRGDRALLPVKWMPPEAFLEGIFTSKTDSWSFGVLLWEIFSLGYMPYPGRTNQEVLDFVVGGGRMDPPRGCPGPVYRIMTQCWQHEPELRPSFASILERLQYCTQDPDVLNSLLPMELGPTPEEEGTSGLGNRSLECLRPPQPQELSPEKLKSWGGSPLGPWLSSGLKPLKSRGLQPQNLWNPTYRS

[31] = target: Mu-type opioid receptor (Homo sapiens) (UniProt P35372); settings: Compound concentration 10.0 uM
[32] = target: Dual specificity mitogen-activated protein kinase kinase 4 (Homo sapiens) (UniProt P45985)
[33] = target: Tyrosine-protein kinase Fyn (Homo sapiens) (UniProt P06241)
[34] = target: Serine/threonine-protein kinase haspin (Homo sapiens) (UniProt Q8TF76)
Chain of Serine/threonine-protein kinase haspin (Homo sapiens) (Q8TF76 whole entry): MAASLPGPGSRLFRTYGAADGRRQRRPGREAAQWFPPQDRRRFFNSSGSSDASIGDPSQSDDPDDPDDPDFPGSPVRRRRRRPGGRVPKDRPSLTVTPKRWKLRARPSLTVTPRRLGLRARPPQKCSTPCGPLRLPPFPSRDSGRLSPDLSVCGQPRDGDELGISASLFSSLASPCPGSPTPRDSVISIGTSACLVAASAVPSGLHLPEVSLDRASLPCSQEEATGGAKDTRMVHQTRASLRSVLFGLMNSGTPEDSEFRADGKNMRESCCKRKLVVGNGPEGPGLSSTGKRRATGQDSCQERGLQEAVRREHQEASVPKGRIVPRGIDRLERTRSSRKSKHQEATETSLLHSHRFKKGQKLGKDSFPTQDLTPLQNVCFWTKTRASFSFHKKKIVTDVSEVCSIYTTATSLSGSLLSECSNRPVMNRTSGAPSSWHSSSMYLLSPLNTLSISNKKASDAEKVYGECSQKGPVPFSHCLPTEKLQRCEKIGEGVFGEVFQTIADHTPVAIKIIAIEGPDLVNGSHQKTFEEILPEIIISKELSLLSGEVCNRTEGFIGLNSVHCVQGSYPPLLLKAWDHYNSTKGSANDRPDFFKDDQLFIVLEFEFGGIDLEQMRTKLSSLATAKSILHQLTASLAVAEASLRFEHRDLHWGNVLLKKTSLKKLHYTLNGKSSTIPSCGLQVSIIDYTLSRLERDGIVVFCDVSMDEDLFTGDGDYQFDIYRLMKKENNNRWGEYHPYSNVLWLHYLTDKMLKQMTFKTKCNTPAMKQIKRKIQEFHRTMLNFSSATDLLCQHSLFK

[35] = target: Dual serine/threonine and tyrosine protein kinase (Homo sapiens) (UniProt Q6XUX3)
[36] = target: Serine/threonine-protein kinase 17B (Homo sapiens) (UniProt O94768)
[37] = target: 5-hydroxytryptamine receptor 2C (Homo sapiens) (UniProt P28335); settings: Compound concentration 10.0 uM
[38] = target: Tyrosine-protein kinase SYK (Homo sapiens) (UniProt P43405)
[39] = target: Focal adhesion kinase 1 (Homo sapiens) (UniProt Q05397)
[40] = target: D(1B) dopamine receptor (Homo sapiens) (UniProt P21918); settings: Compound concentration 10.0 uM
Chain of D(1B) dopamine receptor (Homo sapiens) (P21918 whole entry, canonical isoform): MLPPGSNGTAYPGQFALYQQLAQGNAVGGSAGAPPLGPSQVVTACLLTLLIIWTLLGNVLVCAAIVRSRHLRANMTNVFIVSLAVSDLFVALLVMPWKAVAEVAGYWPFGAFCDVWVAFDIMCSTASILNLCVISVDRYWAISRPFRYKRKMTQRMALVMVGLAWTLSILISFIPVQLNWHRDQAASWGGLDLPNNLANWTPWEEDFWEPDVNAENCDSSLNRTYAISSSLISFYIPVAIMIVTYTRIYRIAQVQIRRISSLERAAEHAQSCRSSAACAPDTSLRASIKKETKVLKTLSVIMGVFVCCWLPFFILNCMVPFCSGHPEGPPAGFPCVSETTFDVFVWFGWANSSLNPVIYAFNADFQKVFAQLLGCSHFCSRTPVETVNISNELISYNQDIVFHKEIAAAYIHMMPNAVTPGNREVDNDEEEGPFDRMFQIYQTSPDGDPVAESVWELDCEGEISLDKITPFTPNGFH

[41] = tested on: Phosphatidylinositol 4,5-bisphosphate 3-kinase catalytic subunit alpha isoform (Homo sapiens), P42336 [M1043I]
[42] = tested on: Receptor-type tyrosine-protein kinase FLT3 (Homo sapiens), P36888 [D835V]
[43] = target: Citron Rho-interacting kinase (Homo sapiens) (UniProt O14578)
[44] = target: Serine/threonine-protein kinase OSR1 (Homo sapiens) (UniProt O95747)
Chain of Serine/threonine-protein kinase OSR1 (Homo sapiens) (O95747 2-527 limits assumed): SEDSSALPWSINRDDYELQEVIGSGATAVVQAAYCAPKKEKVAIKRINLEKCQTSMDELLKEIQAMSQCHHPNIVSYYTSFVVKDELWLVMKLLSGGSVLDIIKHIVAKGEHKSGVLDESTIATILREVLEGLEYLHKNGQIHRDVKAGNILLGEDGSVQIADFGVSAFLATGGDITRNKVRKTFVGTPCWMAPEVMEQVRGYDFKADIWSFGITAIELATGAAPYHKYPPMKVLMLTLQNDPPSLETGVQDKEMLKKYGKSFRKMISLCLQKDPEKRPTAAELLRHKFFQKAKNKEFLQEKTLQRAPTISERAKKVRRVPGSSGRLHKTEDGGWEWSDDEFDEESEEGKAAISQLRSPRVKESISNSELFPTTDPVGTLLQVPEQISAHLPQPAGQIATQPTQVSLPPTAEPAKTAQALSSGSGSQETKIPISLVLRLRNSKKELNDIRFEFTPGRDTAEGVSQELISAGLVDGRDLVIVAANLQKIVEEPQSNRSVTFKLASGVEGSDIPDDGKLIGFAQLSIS

[45] = tested on: Receptor-type tyrosine-protein kinase FLT3 (Homo sapiens), P36888 [R834Q]
[46] = tested on: Proto-oncogene tyrosine-protein kinase receptor Ret (Homo sapiens), P07949 [V804M]
[47] = Compound concentration 1000.0 nM
[48] = Compound concentration 100.0 nM

Chain of Mitogen-activated protein kinase 4 (Homo sapiens) (P31152 whole entry): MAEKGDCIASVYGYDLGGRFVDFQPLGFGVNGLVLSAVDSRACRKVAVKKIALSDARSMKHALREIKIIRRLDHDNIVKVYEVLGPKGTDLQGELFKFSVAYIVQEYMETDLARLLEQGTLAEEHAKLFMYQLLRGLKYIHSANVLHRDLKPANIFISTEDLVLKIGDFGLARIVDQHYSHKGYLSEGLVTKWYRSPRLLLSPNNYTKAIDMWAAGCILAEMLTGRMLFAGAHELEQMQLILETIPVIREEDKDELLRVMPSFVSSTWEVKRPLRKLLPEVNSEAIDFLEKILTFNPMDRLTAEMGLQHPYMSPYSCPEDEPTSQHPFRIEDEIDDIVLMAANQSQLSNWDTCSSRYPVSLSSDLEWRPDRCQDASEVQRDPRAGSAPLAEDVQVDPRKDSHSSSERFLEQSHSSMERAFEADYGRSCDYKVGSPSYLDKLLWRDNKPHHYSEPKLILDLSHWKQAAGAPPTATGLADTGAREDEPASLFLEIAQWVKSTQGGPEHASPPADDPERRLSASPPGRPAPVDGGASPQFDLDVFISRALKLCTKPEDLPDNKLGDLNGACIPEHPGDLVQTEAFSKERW
Chain of Serine/threonine-protein kinase DCLK2 (Homo sapiens) (Q8N568 whole entry): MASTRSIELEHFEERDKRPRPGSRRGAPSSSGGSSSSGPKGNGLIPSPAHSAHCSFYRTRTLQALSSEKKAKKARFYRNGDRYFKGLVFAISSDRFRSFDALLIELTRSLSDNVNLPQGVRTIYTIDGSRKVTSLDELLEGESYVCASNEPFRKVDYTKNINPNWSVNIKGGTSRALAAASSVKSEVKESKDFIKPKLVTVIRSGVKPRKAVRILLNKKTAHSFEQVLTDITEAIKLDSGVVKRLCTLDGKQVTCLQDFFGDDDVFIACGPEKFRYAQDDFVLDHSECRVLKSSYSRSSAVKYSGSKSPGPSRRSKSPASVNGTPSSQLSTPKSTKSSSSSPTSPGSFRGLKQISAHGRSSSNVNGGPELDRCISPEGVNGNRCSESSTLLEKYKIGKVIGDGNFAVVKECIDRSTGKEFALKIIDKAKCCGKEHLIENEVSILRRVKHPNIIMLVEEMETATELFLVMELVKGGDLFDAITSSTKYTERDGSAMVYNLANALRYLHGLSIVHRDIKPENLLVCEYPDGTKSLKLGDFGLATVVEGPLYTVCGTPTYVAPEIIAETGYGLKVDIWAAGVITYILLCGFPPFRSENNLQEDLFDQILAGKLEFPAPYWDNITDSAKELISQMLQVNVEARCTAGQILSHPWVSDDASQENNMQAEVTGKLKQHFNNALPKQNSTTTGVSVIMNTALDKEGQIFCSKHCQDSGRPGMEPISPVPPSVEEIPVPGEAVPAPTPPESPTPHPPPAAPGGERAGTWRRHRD

C[C@H](NC(=O)Nc1cc2[nH]ncc2c(CO)n1)c1ccccn1 [ERKi-NC]
inactive: residual activity [1, 47] 100% | residual activity [2, 47] 100% | residual activity [3, 47] 84.7% | residual activity [4, 47] 100% | residual activity [5, 47] 100% | residual activity [6, 47] 74% | residual activity [7, 47] 100% | residual activity [8, 47] 100% | residual activity [9, 47] 94.4% | residual activity [10, 47] 100% | residual activity [11, 47] 97.3% | residual activity [12, 47] 100% | residual activity [13, 47] 95.4% | inhibition [14] 7.64% | residual activity [15, 47] 100% | inhibition [16] 11.5% | residual activity [17, 47] 100% | residual activity [18, 47] 100% | residual activity [19, 47] 71.3% | residual activity [20, 47] 100% | residual activity [21, 47] 100% | residual activity [22, 47] 100% | residual activity [23, 47] 88.7% | inhibition [24] 3.05% | residual activity [25, 47] 100% | residual activity [26, 47] 100% | residual activity [27, 47] 100% | residual activity [28, 47] 84.5% | residual activity [29, 47] 100% | residual activity [30, 47] 100% | inhibition [31] -6.59% | residual activity [32, 47] 88.9% | residual activity [33, 47] 70.9% | residual activity [34, 47] 72.1% | residual activity [35, 47] 100% | residual activity [36, 47] 100% | inhibition [37] 13.6% | residual activity [38, 47] 100% | residual activity [39, 47] 100% | inhibition [40] 7.55% | residual activity [42, 47] 88% | residual activity [43, 47] 99.9% | residual activity [44, 47] 100% | residual activity [45, 47] 94.5% | residual activity [46, 47] 81.7%
active: residual activity [41, 47] 37.7%

C[C@@H](NC(=O)Nc1cc2[nH]ncc2c(CO)n1)c1ccccc1 [ERKi]
active: residual activity [27, 48] 48.6%
inactive: residual activity [1, 48] 100% | residual activity [2, 48] 100% | residual activity [3, 48] 98.3% | residual activity [4, 48] 94.8% | residual activity [5, 48] 97.7% | residual activity [6, 48] 100% | residual activity [7, 48] 86.6% | residual activity [8, 48] 100% | residual activity [9, 48] 72.6% | residual activity [10, 48] 77.5% | residual activity [11, 48] 91.1% | residual activity [12, 48] 100% | residual activity [13, 48] 100% | inhibition [14] 7.44% | residual activity [15, 48] 83.9% | inhibition [16] -8.07% | residual activity [17, 48] 99.8% | residual activity [18, 48] 77.5% | residual activity [19, 48] 97.2% | residual activity [20, 48] 86.3% | residual activity [21, 48] 53.3% | residual activity [22, 48] 77.4% | residual activity [23, 48] 60.8% | inhibition [24] 11.8% | residual activity [25, 48] 100% | residual activity [26, 48] 100% | residual activity [28, 48] 97.1% | residual activity [29, 48] 83.1% | residual activity [30, 48] 98.5% | inhibition [31] 6.82% | residual activity [32, 48] 89.2% | residual activity [33, 48] 95.2% | residual activity [34, 48] 53.7% | residual activity [35, 48] 91.6% | residual activity [36, 48] 95.8% | inhibition [37] 26.3% | residual activity [38, 48] 100% | residual activity [39, 48] 85.7% | inhibition [40] 21.1% | residual activity [41, 48] 100% | residual activity [42, 48] 95.2% | residual activity [43, 48] 100% | residual activity [44, 48] 69.8% | residual activity [45, 48] 56.8% | residual activity [46, 48] 100%
